In ChEMBL document CHEMBL1144960, “Studies on the synthesis and anti-Osteoporosis of estrogen-GHRPs linkers” (2003):

What was measured:
Format in all cases: functional
Rattus norvegicus [1] = assay: Activity tested for the content of calcium in serum of rat when 18 ug/kg of compound was administered intramuscularly when compared to prednisone
Rattus norvegicus [2] = assay: Weight of rat femur ash tested after intramuscular administration of 18 ug/kg of compound when compared to vehicle
Rattus norvegicus [3] = organism: Rattus norvegicus; assay: Percentage content of calcium in femur tested in the compound using male ICR rats when compared to vehicle
Rattus norvegicus [4] = assay: Activity of alkaline phosphatase (ALP) tested in serum of rat when 18 ug/kg of compound was administered intramuscularly
Rattus norvegicus [5] = assay: Weight of rat femur tested after intramuscular administration of 18 ug/kg of compound when compared to vehicle
Rattus norvegicus [6] = assay: Weight of rat body tested after intramuscular administration of 18 ug/kg of compound when compared to prednisone
Rattus norvegicus [7] = organism: Rattus norvegicus; assay: Percentage content of phosphor in femur tested in the compound using male ICR rats
Rattus norvegicus [8] = assay: Weight of rat body tested after intramuscular administration of 18 ug/kg of compound when compared to vehicle
Rattus norvegicus [9] = assay: Activity tested for the content of calcium in serum of rat when 18 ug/kg of compound was administered intramuscularly when compared to vehicle

| Compound | Ca2+ (Rattus norvegicus [1]) [mM] | Weight (Rattus norvegicus [2]) [mg] | Ca2+ (Rattus norvegicus [3]) [%] | Activity (Rattus norvegicus [4]) | Weight (Rattus norvegicus [5]) [mg] | Weight (Rattus norvegicus [6]) [g] | Phosphor (Rattus norvegicus [7]) [%] | Weight (Rattus norvegicus [8]) [g] | Ca2+ (Rattus norvegicus [9]) [mM] |
| --- | --- | --- | --- | --- | --- | --- | --- | --- | --- |
| CC(C)C[C@H](NC(=O)[C@H](Cc1ccccc1)NC(=O)CNC(=O)CNC(=O)[C@H](Cc1ccc(O)cc1)NC(=O)CCC(=O)O[C@H]1CC[C@H]2[C@@H]3CCc4cc(O)ccc4[C@H]3CC[C@]12C)C(N)=O | 1.92 | – | – | – | – | – | – | – | – |
| C[C@]12CC[C@@H]3c4ccc(O)cc4CC[C@H]3[C@@H]1CCC2O (single isomer, unassigned) [ESTRADIOL] | 2.13 | 22.82 | 42.11 | 44.1 | 35.09 | 35.39 | 21.85 | – | – |
| C[C@]12CC[C@@H]3c4ccc(O)cc4CCC3[C@@H]1CCC2=O (single isomer, unassigned) [ESTRONE] | – | 21.69 | 40.83 | 45.84 | 33.93 | – | 22.02 | 33.62 | 2.28 |
| CC(C)C[C@H](NC(=O)[C@H](Cc1ccccc1)NC(=O)CNC(=O)CNC(=O)[C@@H](N)Cc1ccc(O)cc1)C(=O)O [ENKEPHALIN] | – | 21.74 | – | 37.7 | – | – | 22.27 | 33.29 | – |
| C[C@]12C=CC(=O)C=C1CC[C@@H]1[C@@H]2C(=O)C[C@@]2(C)[C@H]1CC[C@]2(O)C(=O)CO [PREDNISONE] | – | 21.26 | 39.54 | 48.7 | 33.39 | – | 20.87 | 31.89 | 2.42 |
| CC(C)C[C@H](NC(=O)[C@H](Cc1ccccc1)NC(=O)CNC(=O)CNC(=O)[C@@H](N)Cc1ccc(O)cc1)C(N)=O [[LEU5]ENKEPHALIN] | 2.01 | 22.8 | – | 34.22 | – | – | 22.35 | 34.16 | – |
